Experimental data reported in patent US10233173B2, “Substituted 1,2,3-triazoles as NR2B-selective NMDA modulators” (JANSSEN PHARMACEUTICA NV, priority 2016, dated 2019).

Biological target: human GluN1/GluN2B NMDA receptors (Homo sapiens, UniProt Q05586+Q13224)
Test: Cell-based calcium flux (FLIPR) assay on cloned human NR1/NR2B ion channels expressed in mammalian cells
Settings: standard assay; glutamate at ~EC80; FLIPR calcium flux
In short: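 Calcium influx followed by FLIPR fluorescence after 5 min compound exposure and a further 5 min co-agonist challenge: 10 μM glycine with glutamate at ~EC80 (standard) or EC40 (HTS).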

human GluN1/GluN2B NMDA receptors, sequence (Q13224 27-1484, other chains not shown): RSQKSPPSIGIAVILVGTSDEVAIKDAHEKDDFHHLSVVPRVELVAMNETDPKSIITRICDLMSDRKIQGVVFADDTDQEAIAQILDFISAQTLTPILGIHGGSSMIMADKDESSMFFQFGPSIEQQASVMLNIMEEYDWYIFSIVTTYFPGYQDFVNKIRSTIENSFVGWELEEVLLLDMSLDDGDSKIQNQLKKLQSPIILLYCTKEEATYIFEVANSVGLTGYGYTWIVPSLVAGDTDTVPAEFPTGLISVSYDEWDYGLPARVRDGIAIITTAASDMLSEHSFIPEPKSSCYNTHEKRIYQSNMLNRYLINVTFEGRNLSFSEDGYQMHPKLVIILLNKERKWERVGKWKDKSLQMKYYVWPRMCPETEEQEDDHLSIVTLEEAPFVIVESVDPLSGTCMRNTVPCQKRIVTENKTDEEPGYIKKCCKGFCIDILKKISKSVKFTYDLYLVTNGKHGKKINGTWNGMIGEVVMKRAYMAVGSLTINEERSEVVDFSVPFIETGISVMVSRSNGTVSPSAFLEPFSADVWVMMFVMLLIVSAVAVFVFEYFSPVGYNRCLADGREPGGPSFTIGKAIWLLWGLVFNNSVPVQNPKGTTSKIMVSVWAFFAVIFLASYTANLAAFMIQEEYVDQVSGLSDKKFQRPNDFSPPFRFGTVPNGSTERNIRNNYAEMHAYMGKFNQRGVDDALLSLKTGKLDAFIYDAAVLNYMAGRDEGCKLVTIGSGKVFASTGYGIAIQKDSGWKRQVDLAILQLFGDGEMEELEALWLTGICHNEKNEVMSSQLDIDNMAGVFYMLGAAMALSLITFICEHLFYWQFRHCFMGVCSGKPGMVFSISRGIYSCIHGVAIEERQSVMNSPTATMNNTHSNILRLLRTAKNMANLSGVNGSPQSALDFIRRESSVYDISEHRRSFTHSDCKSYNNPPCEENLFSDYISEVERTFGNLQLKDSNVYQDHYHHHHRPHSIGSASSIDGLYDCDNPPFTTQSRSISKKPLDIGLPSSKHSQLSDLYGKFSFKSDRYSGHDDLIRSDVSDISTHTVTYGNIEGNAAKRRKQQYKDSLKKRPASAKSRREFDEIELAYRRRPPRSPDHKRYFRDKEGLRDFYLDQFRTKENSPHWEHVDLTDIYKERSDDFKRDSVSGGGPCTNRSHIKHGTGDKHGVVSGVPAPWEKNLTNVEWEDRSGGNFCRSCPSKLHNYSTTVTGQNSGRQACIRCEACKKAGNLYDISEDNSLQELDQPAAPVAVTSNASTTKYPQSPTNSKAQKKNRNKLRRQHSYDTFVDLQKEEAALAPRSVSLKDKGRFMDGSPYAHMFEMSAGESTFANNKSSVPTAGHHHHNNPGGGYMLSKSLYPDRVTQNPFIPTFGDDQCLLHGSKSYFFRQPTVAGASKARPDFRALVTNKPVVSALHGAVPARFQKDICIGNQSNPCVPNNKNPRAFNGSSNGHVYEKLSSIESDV

SMILES | IC50
Fc1ccc(-n2cc(COc3nccc(C(F)F)n3)nn2)cc1C(F)F [Example 402, 4-(Difluoromethyl)-2-[[1-[3-(difluoromethyl)-4-fluoro-phenyl]triazol-4-yl]methoxy]pyrimidine] | 0.051 µM
Fc1ccc(-n2cc(COc3nccc(C(F)(F)F)n3)nn2)cc1C(F)F [Example 403, 2-[[1-[3-(Difluoromethyl)-4-fluoro-phenyl]triazol-4-yl]methoxy]-4-(trifluoromethyl)pyrimidine] | 0.199 µM
CNC(=O)c1cnc(OCc2cn(-c3ccc(F)c(C(F)F)c3)nn2)nc1 [Example 409, 2-[[1-[3-(Difluoromethyl)-4-fluoro-phenyl]triazol-4-yl]methoxy]-N-methyl-pyrimidine-5-carboxamide] | 0.149 µM
CN(C)C(=O)c1ccnc(OCc2cn(-c3ccc(F)c(C(F)F)c3)nn2)n1 [Example 410, 2-[[1-[3-(Difluoromethyl)-4-fluoro-phenyl]triazol-4-yl]methoxy]-N,N-dimethyl-pyrimidine-4-carboxamide] | > 2.99 µM
COc1nc(OCc2cn(-c3ccc(F)c(C(F)F)c3)nn2)ncc1C [Example 411, 2-[[1-[3-(Difluoromethyl)-4-fluoro-phenyl]triazol-4-yl]methoxy]-4-methoxy-5-methyl-pyrimidine] | 0.021 µM
Nc1ccnc(OCc2cn(-c3ccc(F)c(C(F)F)c3)nn2)n1 [Example 412, 2-[[1-[3-(Difluoromethyl)-4-fluoro-phenyl]triazol-4-yl]methoxy]pyrimidin-4-amine] | 0.124 µM
CNc1ccnc(OCc2cn(-c3ccc(F)c(C(F)F)c3)nn2)n1 [Example 413, 2-[[1-[3-(Difluoromethyl)-4-fluoro-phenyl]triazol-4-yl]methoxy]-N-methyl-pyrimidin-4-amine] | 0.015 µM
CNc1nc(OCc2cn(-c3ccc(F)c(C(F)F)c3)nn2)ncc1F [Example 414, 2-[[1-[3-(Difluoromethyl)-4-fluoro-phenyl]triazol-4-yl]methoxy]-5-fluoro-N-methyl-pyrimidin-4-amine] | 0.122 µM
CN(C)c1ccnc(OCc2cn(-c3ccc(F)c(C(F)F)c3)nn2)n1 [Example 415, 2-[[1-[3-(Difluoromethyl)-4-fluoro-phenyl]triazol-4-yl]methoxy]-N,N-dimethyl-pyrimidin-4-amine] | 0.008 µM
Fc1ccc(-n2cc(COc3ncc(N4CC(F)C4)cn3)nn2)cc1C(F)F [Example 416, 2-((1-(3-(Difluoromethyl)-4-fluorophenyl)-1H-1,2,3-triazol-4-yl)methoxy)-5-(3-fluoroazetidin-1-yl)pyrimidine] | 0.01 µM
Fc1ccc(-n2cc(COc3ncc(N4CCC4)cn3)nn2)cc1C(F)F [Example 417, 5-(Azetidin-1-yl)-2-((1-(3-(difluoromethyl)-4-fluorophenyl)-1H-1,2,3-triazol-4-yl)methoxy)pyrimidine] | 0.006 µM
COC1CN(c2cnc(OCc3cn(-c4ccc(F)c(C(F)F)c4)nn3)nc2)C1 [Example 418, 2-((1-(3-(Difluoromethyl)-4-fluorophenyl)-1H-1,2,3-triazol-4-yl)methoxy)-5-(3-methoxyazetidin-1-yl)pyrimidine] | 0.271 µM
Fc1ccc(-n2cc(COc3ncc(N4CC(F)(F)C4)cn3)nn2)cc1C(F)F [Example 419, 5-(3,3-Difluoroazetidin-1-yl)-2-((1-(3-(difluoromethyl)-4-fluorophenyl)-1H-1,2,3-triazol-4-yl)methoxy)pyrimidine] | 0.029 µM
CC1(F)CN(c2cnc(OCc3cn(-c4ccc(F)c(C(F)F)c4)nn3)nc2)C1 [Example 420, 2-((1-(3-(Difluoromethyl)-4-fluorophenyl)-1H-1,2,3-triazol-4-yl)methoxy)-5-(3-fluoro-3-methylazetidin-1-yl)pyrimidine] | 0.26 µM
Fc1ccc(-n2cc(COc3ncc(N4CC(C(F)F)C4)cn3)nn2)cc1C(F)F [Example 421, 2-((1-(3-(Difluoromethyl)-4-fluorophenyl)-1H-1,2,3-triazol-4-yl)methoxy)-5-(3-(difluoromethyl)azetidin-1-yl)pyrimidine] | 0.227 µM
Fc1ccc(-n2cc(COc3ncc(N4CCC(F)(F)C4)cn3)nn2)cc1C(F)F [Example 422, 2-((1-(3-(Difluoromethyl)-4-fluorophenyl)-1H-1,2,3-triazol-4-yl)methoxy)-5-(3,3-difluoropyrrolidin-1-yl)pyrimidine] | 0.068 µM
Fc1ccc(-n2cc(COc3ncc(C4CC4)cn3)nn2)cc1C(F)F [Example 423, 5-Cyclopropyl-2-[[1-[3-(difluoromethyl)-4-fluoro-phenyl]triazol-4-yl]methoxy]pyrimidine] | 0.005 µM
Fc1ccc(-n2cc(COc3nccc(-c4ccco4)n3)nn2)cc1C(F)F [Example 424, 2-[[1-[3-(Difluoromethyl)-4-fluoro-phenyl]triazol-4-yl]methoxy]-4-(2-furyl)pyrimidine] | 0.141 µM
Cc1cnc(OCc2nnn(-c3ccc(F)c(C(F)F)c3)c2I)nc1 [Example 425, 2-[[1-[3-(Difluoromethyl)-4-fluoro-phenyl]-5-iodo-triazol-4-yl]methoxy]-5-methyl-pyrimidine] | 0.394 µM
Fc1ccc(-n2cc(COc3ncccc3F)nn2)cc1C(F)(F)F [Example 427, 3-Fluoro-2-[[1-[4-fluoro-3-(trifluoromethyl)phenyl]triazol-4-yl]methoxy]pyridine] | 0.897 µM
Fc1ccc(-n2cc(COc3ccc(Cl)cn3)nn2)cc1C(F)(F)F [Example 428, 5-Chloro-2-[[1-[4-fluoro-3-(trifluoromethyl)phenyl]triazol-4-yl]methoxy]pyridine] | 0.796 µM
Cc1ccnc(OCc2cn(-c3ccc(F)c(C(F)(F)F)c3)nn2)c1 [Example 429, 2-[[1-[4-Fluoro-3-(trifluoromethyl)phenyl]triazol-4-yl]methoxy]-4-methyl-pyridine] | 0.665 µM
Cc1cccc(OCc2cn(-c3ccc(F)c(C(F)(F)F)c3)nn2)n1 [Example 430, 2-[[1-[4-Fluoro-3-(trifluoromethyl)phenyl]triazol-4-yl]methoxy]-6-methyl-pyridine] | 0.11 µM
Cc1ccc(OCc2cn(-c3ccc(F)c(C(F)(F)F)c3)nn2)nc1 [Example 431, 2-[[1-[4-Fluoro-3-(trifluoromethyl)phenyl]triazol-4-yl]methoxy]-5-methyl-pyridine] | 0.101 µM
Fc1ccc(-n2cc(COc3ccc(C(F)(F)F)cn3)nn2)cc1C(F)(F)F [Example 432, 2-[[1-[4-Fluoro-3-(trifluoromethyl)phenyl]triazol-4-yl]methoxy]-5-(trifluoromethyl)pyridine] | 0.528 µM
CC(C)(O)c1ccc(OCc2cn(-c3ccc(F)c(C(F)(F)F)c3)nn2)nc1 [Example 433, 2-[6-[[1-[4-Fluoro-3-(trifluoromethyl)phenyl]triazol-4-yl]methoxy]-3-pyridyl]propan-2-ol] | 1.11 µM
Fc1ccc(-n2cc(COc3cnccn3)nn2)cc1C(F)(F)F [Example 434, 2-[[1-[4-Fluoro-3-(trifluoromethyl)phenyl]triazol-4-yl]methoxy]pyrazine] | 6.39 µM
CC(C)(O)c1cnc(OCc2cn(-c3ccc(F)c(C(F)(F)F)c3)nn2)nc1 [Example 435, 2-[2-[[1-[4-Fluoro-3-(trifluoromethyl)phenyl]triazol-4-yl]methoxy]pyrimidin-5-yl]propan-2-ol] | 0.098 µM
